# Patent publication US11851419B2, “GLP-1R modulating compounds” (Gilead Sciences, Inc., priority 2020, dated 2023)
# Molecular target: T1, GLP-1R (Homo sapiens, UniProt P43220)
# Assay: GLP-1R Activation - cAMP Assay 2 (cAMP increase in CHO cells stably expressing GLP-1R, pre-spotted agonists)
# Type: cell-based
# Settings: assay buffer or 100% Human Plasma (not given), 30 minutes at 37° C.
# Experimental: GLP-1R Activation—cAMP Assay 2
# GLP-1R activation by small molecule agonists is quantified by measuring cAMP increase in CHO cells stably expressing GLP-1R (MultiSpan product #C1267-1a). 50 nL of agonists are pre-spotted in a 10 point dose response onto 384-well plate (Corning product #CL3826) using the Labcyte Echo System. The cells are harvested and plated in assay buffer (HBSS (Corning product #21-023-CV) with 20 mM Hepes (Gibco product #15630-080) and 0.1% BSA (Rockland Immunochemicals product #BSA-1000)) or 100% Human Plasma (Innovative Research product #50-643-396) at 1,000 cells/well, 10 µL/well, onto the pre-spotted plates. The cells are then incubated for 30 minutes at 37° C., 5% CO2. cAMP concentration increase is then detected using Cisbio's cAMP Gs Dynamic Kit (product #62AM4PEC) according to the manufacturer's protocol. The response is plotted against the log of the agonist concentration and fitted to a sigmoidal equation to determine the EC50.
# T1 sequence (P43220 24-463): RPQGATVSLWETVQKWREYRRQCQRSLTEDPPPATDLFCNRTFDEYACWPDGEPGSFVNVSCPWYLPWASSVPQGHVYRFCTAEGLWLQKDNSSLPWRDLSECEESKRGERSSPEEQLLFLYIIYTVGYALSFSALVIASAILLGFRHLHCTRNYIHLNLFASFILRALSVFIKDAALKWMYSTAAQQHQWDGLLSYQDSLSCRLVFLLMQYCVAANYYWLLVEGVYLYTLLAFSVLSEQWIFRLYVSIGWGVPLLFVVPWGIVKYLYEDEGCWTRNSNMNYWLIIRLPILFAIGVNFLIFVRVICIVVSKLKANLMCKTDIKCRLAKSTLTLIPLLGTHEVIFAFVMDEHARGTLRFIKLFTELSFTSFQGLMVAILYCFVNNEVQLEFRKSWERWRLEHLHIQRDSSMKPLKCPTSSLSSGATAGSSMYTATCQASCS
row,EC50,SMILES
1,1.9 nM,"COCCn1c(CN2CCN(c3cccc(OCc4ccc(C#N)cc4F)n3)CC2)nc2c(F)c(Nc3ccccc3)c(C(=O)O)cc21 [Example 3, 2-((4-(6-((4-cyano-2-fluorobenzyl)oxy)pyridin-2-yl)piperazin-1-yl)methyl)-4-fluoro-1-(2-methoxyethyl)-5-(phenylamino)-1H-benzo[d]imidazole-6-carboxylic acid]"
2,0.98 nM,"Cn1ccc(-c2cc(C(=O)O)cc3c2nc(CN2CCC(c4cccc(OCc5ccc(C#N)cc5F)n4)CC2)n3C[C@@H]2CCO2)n1 [Example 18, 2-[[4-[6-[(4-cyano-2-fluoro-phenyl)methoxy]-2-pyridyl]-1-piperidyl]methyl]-7-(1-methylpyrazol-3-yl)-3-[[(2S)-oxetan-2-yl]methyl]benzimidazole-5-carboxylic Acid]"
3,0.031 nM,N#Cc1ccc(COc2cccc(N3CCN(Cc4nc5c(F)cc(C(=O)O)cc5n4C[C@@H]4CCO4)CC3)n2)c(F)c1 [Example 23]
4,134 nM,"COCCn1c(C[C@H]2CC[C@@H](c3cccc(OCc4ccc(C#N)cc4F)n3)CC2)nc2c(-c3ccn(C)n3)cc(C(=O)O)cc21 [Example 31, 2-(((1s,4s)-4-(6-((4-cyano-2-fluorobenzyl)oxy)pyridin-2-yl)cyclohexyl)methyl)-1-(2-methoxyethyl)-4-(1-methyl-1H-pyrazol-3-yl)-1H-benzo[d]imidazole-6-carboxylic Acid]"
5,0.038 nM,N#Cc1ccc(COc2cccc(C3CCN(Cc4nc5c(F)cc(C(=O)O)cc5n4C[C@@H]4CCO4)CC3)n2)c(F)c1 [Example 21]
6,0.3 nM,"Cn1ccc(-c2cc(C(=O)O)cc3c2nc(CN2CCN(c4cccc(OCc5ccc(C#N)cc5F)n4)CC2)n3C[C@@H]2CCO2)n1 [Example 19, 2-[[4-[6-[(4-cyano-2-fluoro-phenyl)methoxy]-2-pyridyl]piperazin-1-yl]methyl]-7-(1-methylpyrazol-3-yl)-3-[[(2S)-oxetan-2-yl]methyl]benzimidazole-5-carboxylic Acid]"
7,0.22 nM,"N#Cc1ccc(COc2nc(N3CCN(Cc4nc5c(F)cc(C(=O)O)cc5n4C[C@@H]4CCO4)CC3)ccc2F)c(F)c1 [Example 22, 2-[[4-[6-[(4-cyano-2-fluoro-phenyl)methoxy]-5-fluoro-2-pyridyl]piperazin-1-yl]methyl]-7-fluoro-3-[[(2S)-oxetan-2-yl]methyl]benzimidazole-5-carboxylic Acid]"
8,13.3 nM,"Cn1cc(-c2cc3nc(CN4CCC(c5cccc(OCc6ccc(C#N)cc6F)n5)CC4)n(C[C@@H]4CCO4)c3cc2C(=O)O)cn1 [Example 17, (S)-2-((4-(6-((4-cyano-2-fluorobenzyl)oxy)pyridin-2-yl)piperidin-1-yl)methyl)-5-(1-methyl-1H-pyrazol-4-yl)-1-(oxetan-2-ylmethyl)-1H-benzo[d]imidazole-6-carboxylic Acid]"
9,1.2 nM,"Cn1ccc(-c2cc(C(=O)O)cc3c2nc(CN2CCC(c4ccnc(OCc5ccc(C#N)cc5F)n4)CC2)n3C[C@@H]2CCO2)n1 [Example 4, (S)-2-((4-(2-((4-cyano-2-fluorobenzyl)oxy)pyrimidin-4-yl)piperidin-1-yl)methyl)-4-(1-methyl-1H-pyrazol-3-yl)-1-(oxetan-2-ylmethyl)-1H-benzo[d]imidazole-6-carboxylic Acid]"
10,28.8 nM,"CC(C)(O)C#Cc1cc2nc(CN3CCC(c4cccc(OCc5ccc(C#N)cc5F)n4)CC3)n(C[C@@H]3CCO3)c2cc1C(=O)O [Example 16, (S)-2-((4-(6-((4-cyano-2-fluorobenzyl)oxy)pyridin-2-yl)piperidin-1-yl)methyl)-5-(3-hydroxy-3-methylbut-1-yn-1-yl)-1-(oxetan-2-ylmethyl)-1H-benzo[d]imidazole-6-carboxylic Acid]"
11,0.81 nM,CC(C)(O)C#Cc1cc(C(=O)O)cc2c1nc(CN1CCC(c3cccc(OCc4ccc(C#N)cc4F)n3)CC1)n2C[C@@H]1CCO1 [Example 12]
12,175 nM,"COCCn1c(CN2CCC(c3cccc(OCc4ccc(C(N)=O)cc4F)n3)CC2)nc2c(F)c(Nc3ccccc3)c(C(=O)O)cc21 [Example 2, 2-((4-(6-((4-carbamoyl-2-fluorobenzyl)oxy)pyridin-2-yl)piperidin-1-yl)methyl)-4-fluoro-1-(2-methoxyethyl)-5-(phenylamino)-1H-benzo[d]imidazole-6-carboxylic Acid]"
13,2.6 nM,N#Cc1ccc(COc2cccc(N3CCN(Cc4nc5c(-c6ccccn6)cc(C(=O)O)cc5n4C[C@@H]4CCO4)CC3)n2)c(F)c1 [Example 6]
14,31.9 nM,"CC(C)(O)C#Cc1cc(C(=O)O)cc2c1nc(CN1CCN(c3cccc(OCc4ccc(C(N)=O)cc4F)n3)CC1)n2C[C@@H]1CCO1 [Example 13, 2-[[4-[6-[(4-carbamoyl-2-fluoro-phenyl)methoxy]-2-pyridyl]piperazin-1-yl]methyl]-7-(3-hydroxy-3-methyl-but-1-ynyl)-3-[[(2S)-oxetan-2-yl]methyl]benzimidazole-5-carboxylic Acid]"
15,52.2 nM,"Cn1ccc(-c2cc3nc(CN4CCC(c5cccc(OCc6ccc(C#N)cc6F)n5)CC4)n(C[C@@H]4CCO4)c3cc2C(=O)O)n1 [Example 30, 2-[[4-[6-[(4-cyano-2-fluoro-phenyl)methoxy]-2-pyridyl]-1-piperidyl]methyl]-6-(1-methylpyrazol-3-yl)-3-[[(2S)-oxetan-2-yl]methyl]benzimidazole-5-carboxylic Acid]"
16,1.7 nM,"CC(C)(O)C#Cc1cc(C(=O)O)cc2c1nc(CN1CCN(c3cccc(OCc4ccc(C#N)cc4F)n3)CC1)n2C[C@@H]1CCO1 [Example 11, 2-[[4-[6-[(4-cyano-2-fluoro-phenyl)methoxy]-2-pyridyl]piperazin-1-yl]methyl]-7-(3-hydroxy-3-methyl-but-1-ynyl)-3-[[(2S)-oxetan-2-yl]methyl]benzimidazole-5-carboxylic Acid]"
17,10.6 nM,"COCCn1c(C[C@H]2CC[C@H](c3cccc(OCc4ccc(C#N)cc4F)n3)CC2)nc2c(-c3ccn(C)n3)cc(C(=O)O)cc21 [Example 32, 2-(((1r,4r)-4-(6-((4-cyano-2-fluorobenzyl)oxy)pyridin-2-yl)cyclohexyl)methyl)-1-(2-methoxyethyl)-4-(1-methyl-1H-pyrazol-3-yl)-1H-benzo[d]imidazole-6-carboxylic Acid]"
18,15.1 nM,"COCCn1c(CN2CCC(c3cccc(OCc4ccc(C#N)cc4F)n3)CC2)nc2c(F)c(Nc3ccccc3)c(C(=O)O)cc21 [Example 1, 2-((4-(6-((4-cyano-2-fluorobenzyl)oxy)pyridin-2-yl)piperidin-1-yl)methyl)-4-fluoro-1-(2-methoxyethyl)-5-(phenylamino)-1H-benzo[d]imidazole-6-carboxylic acid]"
19,9.8 nM,"N#Cc1ccc(COc2cccc(C3CCN(Cc4nc5c(-c6ccccn6)cc(C(=O)O)cc5n4C[C@@H]4CCO4)CC3)n2)c(F)c1 [Example 5, Methyl 2-[[4-[6-[(4-cyano-2-fluoro-phenyl)methoxy]-2-pyridyl]-1-piperidyl]methyl]-3-[[(2S)-oxetan-2-yl]methyl]-7-(2-pyridyl)benzimidazole-5-carboxylic Acid]"
20,0.07 nM,"N#Cc1ccc(COc2nc(C3CCN(Cc4nc5c(F)cc(C(=O)O)cc5n4C[C@@H]4CCO4)CC3)ccc2F)c(F)c1 [Example 20, 2-[[4-[6-[(4-cyano-2-fluoro-phenyl)methoxy]-5-fluoro-2-pyridyl]-1-piperidyl]methyl]-7-fluoro-3-[[(2S)-oxetan-2-yl]methyl]benzimidazole-5-carboxylic Acid]"

row,SMILES,EC50
1,"CC(C)(C)OC(=O)Nc1cc2nc(CN3CCC(c4cccc(OCc5ccc(C#N)cc5F)n4)CC3)n(C[C@@H]3CCO3)c2cc1C(=O)O [Example 24, 6-(tert-butoxycarbonylamino)-2-[[4-[6-[(4-cyano-2-fluoro-phenyl)methoxy]-2-pyridyl]-1-piperidyl]methyl]-3-[[(2S)-oxetan-2-yl]methyl]benzimidazole-5-carboxylic Acid]",0.51 nM

# Molecular target: T1, GLP-1R
# Assay: GLP-1R Activation - cAMP Assay 1 (cAMP increase in CHO cells stably expressing GLP-1R)
# Type: cell-based
# Settings: 10 point dose response, 30 minutes incubation at 37° C., cAMP Gs Dynamic Kit
# Experimental: GLP-1R Activation—cAMP Assay 1
# GLP-1R activation by a compound of the present disclosure was quantified by measuring cAMP increase in CHO cells stably expressing GLP-1R (MultiSpan product #C1267-1a). The cells were harvested and plated in growth medium (DMEM/F-12 (Corning product #10-090-CV) supplemented with 10% FBS (HyClone product #SH30071-03), penicillin/streptomycin (Corning product #30-002CI) and 10 µg/ml puromycin (Gibco product #A11138-03)) at 1,000 cells/well in a 384-well plate (Greiner product #781080). The cells were then incubated overnight at 37° C., 5% CO2. The next day, the medium was removed and the cells were washed with DPBS (Corning product #21-031-CM) before adding the assay medium (HBSS, Corning product #21-023-CV) with 20 mM Hepes (Gibco product #15630-080) and 0. 1% BSA (Rockland Immunochemicals product #BSA-1000)). Following the medium change, the cells were incubated for 1 hour at 37° C., 5% CO2. The tested GLP-1 compound was added to the cells in a 10 point dose response followed by a 30 minutes incubation at 37° C., 5% CO2. cAMP concentration increase was then detected using Cisbio's cAMP Gs Dynamic Kit (product #62AM4PEC) according to the manufacturer's protocol. The response was plotted against the log of the agonist concentration and fitted to a sigmoidal equation to determine the EC50.
row,EC50,SMILES
1,104 nM,"COCCn1c(CN2CCC(c3cccc(OCc4ccc(C#N)cc4F)n3)CC2)nc2c(-c3cnn(C)c3)cc(C(=O)O)cc21 [Example 29, 2-((4-(6-((4-cyano-2-fluorobenzyl)oxy)pyridin-2-yl)piperidin-1-yl)methyl)-1-(2-methoxyethyl)-4-(1-methyl-1H-pyrazol-4-yl)-1H-benzo[d]imidazole-6-carboxylic Acid]"
